{
  "source": "patent US5434174A",
  "about": "“Isoxazole derivatives for the treatment of irritable bowel syndrome” (priority 1993, dated 1995)",
  "origin": "cited, not measured here",
  "key": {"gastric secretion": {"system": "gastric secretion", "conditions": "intravenous infusion in humans; cited from earlier work"}, "[1]": {"conditions": "IBS therapy; cited from earlier work"}},
  "data": [
    {"compound": "N[C@@H](Cc1c[nH]c2ccc(O)cc12)C(=O)O", "note": "[Example 5-HTP, 5-hydroxytryptophane]", "values": [
      {"measurement": "effect on production of mucus", "setting": "gastric secretion", "value": "increasing the production of mucus"},
      {"measurement": "effect on volume and acidity of spontaneous and histamine-induced gastric secretion", "setting": "gastric secretion", "value": "inhibits the volume and acidity of both spontaneous and histamine-induced gastric secretion"}
    ]},
    {"compound": "NCCc1c[nH]c2ccc(O)cc12", "note": "[Example 5-HT, 5-hydroxytryptamine]", "values": [
      {"measurement": "effect on production of mucus", "setting": "gastric secretion", "value": "increasing the production of mucus"},
      {"measurement": "effect on volume and acidity of spontaneous and histamine-induced gastric secretion", "setting": "gastric secretion", "value": "inhibits the volume and acidity of both spontaneous and histamine-induced gastric secretion"}
    ]},
    {"compound": "CCN(CC)CCOC(=O)C1(C2CCCCC2)CCCCC1", "note": "[Bentyl]", "values": [
      {"measurement": "side effects", "setting": "[1]", "value": "serious side effects"}
    ]}
  ]
}
